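Grown in 96-well plates, cells were treated for 48 hours with each compound at five concentrations. Insufficient inhibition: endpoint recorded as highest concentration tested. TGI marks complete inhibition of growth.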
What was measured:
Assay in all cases: NCI tumour cell line growth inhibition, 48 h
CAKI-1 renal = system: CAKI-1 renal
NCI-H522 lung = system: NCI-H522 lung
NCI-H226 lung = system: NCI-H226 lung
SF-268 CNS = system: SF-268 CNS
SNB-19 CNS = system: SNB-19 CNS
HCT-15 colon = system: HCT-15 colon
RXF 393 renal = system: RXF 393 renal
MDA-MB-231 breast = system: MDA-MB-231 breast
OVCAR-3 ovarian = system: OVCAR-3 ovarian
HS 578T breast = system: HS 578T breast
SF-295 CNS = system: SF-295 CNS
BT-549 breast = system: BT-549 breast
UACC-257 melanoma = system: UACC-257 melanoma
RPMI-8226 leukemia = system: RPMI-8226 leukemia
DU-145 prostate = system: DU-145 prostate
PC-3 prostate = system: PC-3 prostate
COLO 205 colon = system: COLO 205 colon
MDA-MB-435 = system: MDA-MB-435
A549 NSCLC = system: A549 NSCLC
CCRF-CEM leukemia = system: CCRF-CEM leukemia
U251 CNS = system: U251 CNS
EKVX NSCLC = system: EKVX NSCLC
MDA-N = system: MDA-N
HCC-2998 colon = system: HCC-2998 colon
OVCAR-8 ovarian = system: OVCAR-8 ovarian
K-562 leukemia = system: K-562 leukemia
NCI-H23 lung = system: NCI-H23 lung
OVCAR-4 ovarian = system: OVCAR-4 ovarian
TK-10 renal = system: TK-10 renal
MALME-3M melanoma = system: MALME-3M melanoma
KM12 colon = system: KM12 colon
SN12C renal = system: SN12C renal
SK-MEL-2 melanoma = system: SK-MEL-2 melanoma
ACHN renal = system: ACHN renal
HL-60(TB) leukemia = system: HL-60(TB) leukemia
OVCAR-5 ovarian = system: OVCAR-5 ovarian
IGROV1 ovarian = system: IGROV1 ovarian
HOP-62 NSCLC = system: HOP-62 NSCLC
SR leukemia = system: SR leukemia
SK-OV-3 ovarian = system: SK-OV-3 ovarian
SK-MEL-5 melanoma = system: SK-MEL-5 melanoma
UO-31 renal = system: UO-31 renal
SF-539 CNS = system: SF-539 CNS
MCF7 breast = system: MCF7 breast
SNB-75 CNS = system: SNB-75 CNS
HOP-92 NSCLC = system: HOP-92 NSCLC
HT29 colon = system: HT29 colon
SW-620 colon = system: SW-620 colon
A498 renal = system: A498 renal
NCI/ADR-RES ovarian = system: NCI/ADR-RES ovarian
UACC-62 melanoma = system: UACC-62 melanoma
M14 melanoma = system: M14 melanoma
HCT-116 colon = system: HCT-116 colon
NCI-H460 lung = system: NCI-H460 lung
786-0 renal = system: 786-0 renal
MOLT-4 leukemia = system: MOLT-4 leukemia

C[C@]12C[C@@H](c3ccccc3)Nc3ccccc3N1C(c1ccccc1)=NO2
TGI (CAKI-1 renal): > 100 µM | TGI (NCI-H522 lung): 86.4 µM | TGI (NCI-H226 lung): 90.8 µM | TGI (SF-268 CNS): > 100 µM | TGI (SNB-19 CNS): > 100 µM | TGI (HCT-15 colon): > 100 µM | TGI (RXF 393 renal): > 100 µM | TGI (MDA-MB-231 breast): > 100 µM | TGI (OVCAR-3 ovarian): > 100 µM | TGI (HS 578T breast): > 100 µM | TGI (SF-295 CNS): > 100 µM | TGI (BT-549 breast): 90.3 µM | TGI (UACC-257 melanoma): > 100 µM | TGI (RPMI-8226 leukemia): 49.3 µM | TGI (DU-145 prostate): > 100 µM | TGI (PC-3 prostate): > 100 µM | TGI (COLO 205 colon): 34.7 µM | TGI (MDA-MB-435): 58.5 µM | TGI (A549 NSCLC): > 100 µM | TGI (CCRF-CEM leukemia): 74.3 µM | TGI (U251 CNS): > 100 µM | TGI (EKVX NSCLC): 79.3 µM | TGI (MDA-N): 68.7 µM | TGI (HCC-2998 colon): > 100 µM | TGI (OVCAR-8 ovarian): > 100 µM | TGI (K-562 leukemia): > 100 µM | TGI (NCI-H23 lung): > 100 µM | TGI (OVCAR-4 ovarian): 81.9 µM | TGI (TK-10 renal): > 100 µM | TGI (MALME-3M melanoma): > 100 µM | TGI (KM12 colon): > 100 µM | TGI (SN12C renal): > 100 µM | TGI (SK-MEL-2 melanoma): 76.3 µM | TGI (ACHN renal): > 100 µM | TGI (HL-60(TB) leukemia): 71.9 µM | TGI (OVCAR-5 ovarian): > 100 µM | TGI (IGROV1 ovarian): > 100 µM | TGI (HOP-62 NSCLC): > 100 µM | TGI (SR leukemia): 34.6 µM | TGI (SK-OV-3 ovarian): > 100 µM | TGI (SK-MEL-5 melanoma): 30.8 µM | TGI (UO-31 renal): 89.5 µM | TGI (SF-539 CNS): > 100 µM | TGI (MCF7 breast): > 100 µM | TGI (SNB-75 CNS): 69.4 µM | TGI (HOP-92 NSCLC): 58.4 µM | TGI (HT29 colon): > 100 µM | TGI (SW-620 colon): > 100 µM | TGI (A498 renal): > 100 µM | TGI (NCI/ADR-RES ovarian): > 100 µM | TGI (UACC-62 melanoma): > 100 µM | TGI (M14 melanoma): 93.3 µM | TGI (HCT-116 colon): > 100 µM | TGI (NCI-H460 lung): > 100 µM | TGI (786-0 renal): > 100 µM | TGI (MOLT-4 leukemia): 43.5 µM

From PubChem BioAssay (NCI)
